The values below come from US11555055B2, “Peptide inhibitors of insulin-degrading enzyme” (The Regents of the University of California, priority 2017, dated 2023).

Assay [1] deals with primary murine skin fibroblasts. As to the kind of experiment: Cell proliferation (CellTiter 96 AQueous). The conditions noted are these: 100 μM P12-3A, 10 nM insulin; not statistically significant. It counts as cell-based, mouse. As to the method: FIG. 4A-F. Effects of P12-3A on cultured skin cells. A, Insulin concentrations as a function of time in logarithmically growing primary murine skin fibroblasts in the absence or presence of P12-3A (100 μM). […] Data are mean±SEM of 4 independent replications. *P<0.05, **P<0.01. B, Proliferation of cells in the absence or presence of P12-3A (100 μM). […] C,D,E, P12-3A (100 μM) potentiates insulin-induced collagen production in skin fibroblasts. Collagen production was assessed by COL1A1 mRNA levels (C), levels of hydroxyproline secreted into the medium (D), and cell-associated mature alpha-1 type I collagen levels detected by Western blotting (E). […] Migration of HaCaT cells 48 h after induction of a scratch wound in the presence of the indicated quantities of insulin and/or P12-3A (100 μM). […]
Insulin promotes wound healing and overall skin health by affecting a number of processes, including cell proliferation (2,3), cell migration (5,6), and the production and secretion of ECM components, particularly type I collagen (7-13). We therefore assessed the ability of P12-3A to influence these processes in cultured skin fibroblasts and keratinocytes. To that end, primary mouse skin fibroblasts were grown for 4 d in multiple concentrations of insulin in the presence or absence of P12-3A, and insulin concentration over time was monitored by ELISA. […]

Another assay concerns 15 different proteases. As to the kind of experiment: Selectivity of P12-3A against 15 other proteases (MMPs and peptidases of different classes). The assay is classed as biochemical. To be noted: P12-3A 100 μM. As to the method: FIG. 8A-B. Selectivity of P12-3A for IDE vis-à-vis other proteases. Activity of P12-3A (100 μM) against (A) multiple matrix-metalloproteases (MMPs) and (B) multiple peptidases of different protease classes. […] Data are mean±SEM, n=8-16 per group. P<0.05 by 2-tailed Student's t-test. […] See Experimental Procedures for details. NEP, neprilysin; mCatD, murine cathepsin D; hCatD, human cathepsin D.
Degradation Assays—IDE activity was quantified by monitoring the degradation of (7-methoxycoumarin-4-yl)acetic acid-[…](2,4-dinitrophenyl) (FRET1, 5 μM) (49,55), fluoresceinated and biotinylated amyloid β-protein (FAβB; 500 nM) or recombinant human insulin (50 nM) in PBS supplemented with 0.05% BSA. FRET1 degradation was measured by changes in fluorescence (λex=340 nm, λem=420 nm); FAβB degradation was monitored by fluorescence polarization (λex=488 nm, λem=525 nm), as described (56); and insulin degradation was quantified by ELISA. In vitro activity assays incorporated recombinant human IDE (1 nM) purified from bacteria (35). For quantitation of insulin degradation in primary murine skin fibroblasts, cells (1×10^5/well) were plated in 96-well plates and maintained in DMEM supplemented with 10% fetal bovine serum (FBS), 2 mM glutamine, penicillin and streptomycin. […]

Entries after “also recorded” stand apart in the source; their conditions may differ. Where a SMILES comes first, the peptide text is derived from it. Bridges are numbered along the chain shown (N, C = ends).

With `CC(C)C[C@H](NC(=O)[C@H](CO)NC(=O)[C@@H](N)CCC(N)=O)C(=O)N1CCC[C@H]1C(=O)N[C@@H](Cc1c[nH]c2ccccc12)C(=O)N[C@H]1CSSC[C@@H](C(=O)N[C@H](C(=O)N[C@H](C(N)=O)[C@@H](C)O)C(C)C)NC(=O)[C@H](Cc2c[nH]cn2)NC(=O)[C@@H]2CCCN2C(=O)[C@H](Cc2ccc(O)cc2)NC1=O` [Peptide P12-3A] (H-QSLPWCYPHCVT-NH2; disulfide 6-10 (inferred)), the cell proliferation result in assay [1] was “modestly increased; also recorded: No significant differences”. Moreover, the “inhibition of 15 different proteases” value in the assay on 15 different proteases is reported as “essentially no inhibition”.
